Test results: patent US20080132500A1, “Antibiotic compounds” (priority 2006, published 2008)
Values after ≈ are worked out from the molar mass of the structure shown. Like-named read-outs stand apart in the source and are kept apart here.

What was measured:
Test in all cases: Microbroth dilution MIC
Assay type in all cases: cell-based
[1] = tested on: Staphylococcus Aureus CL 8260; settings: Staphylococcus Aureus strain CL 8260
Protocol: (§1) Cation-Adjusted Mueller Hinton Broth (BBL): Prepared according to manufacturer's instructions (22 gms dissolved in 1000 mL water; autoclaved 22 minutes). Stored refrigerated. Filter-sterilized before use using a Coming 0.45 Tm cellulose acetate filter.
(§2) The type of strains listed above can be obtained from publicly available sources. The strain of Haemophilus influenzae used in to assay the compound of this invention is a mouse pathogen used for in vivo testing at Merck. The Escherichia coli strain used in to assay the compound of this invention is a cell wall permeable strain. The Candida albicans strain is used as a control. These culture are maintained as frozen stocks at −80° C. in a) Microbank beads; b) 2× Skim Milk; or c) in 2× X Trypticase Soy Broth+15% glycerol/50% horse serum (Haemophilus and Streptococcus pneumoniae).
(§3) Selected isolates are sub-cultured onto either Chocolate Agar Plates (Haemophilus influenzae), onto Trypticase Soy+5% Sheep Blood Agar Plates (Streptococcus pneumoniae, Staphylococcus aureus, Escherichia coli, Enterococcus, Bacillus) or onto Sabouraud Dextrose Agar (Candida) and incubated at 35° C. Haemophilus and Streptococcus pneumoniae are incubated in 5% CO2; all other isolates are incubated in ambient air. Isolates are sub-cultured 2× before assay.
(§4) Colonies are selected from plates and used to prepare an inoculum equivalent to a 0.5 McFarland standard in Trypticase Soy Broth. An inoculum with a density equivalent to a 1.0 McFarland standard is prepared for Streptococcus pneumoniae. The inoculum density for all cultures is ˜10^8 CFU/mL in TSB. This TSB inoculum is diluted 1:10 in sterile saline (4 mL inoculum+36 mL saline; equivalent to ˜10^7 CFU/mL) and kept on ice until used to inoculate microtiter plates.
(§5) All wells of 96-well microtiter plates (Dynex) are filled with 100 TL media. Haemophilus test media plates are prepared to test Haemophilus influenzae; Cation-Adjusted Mueller Hinton+5% Lysed Horse Blood plates are prepared to test Streptococcus pneumoniae; Cation-Adjusted Mueller Hinton Broth plates are prepared to test Enterococcus, Staphylococcus aureus, Escherichia coli and Bacillus subtilis. RPMI 1640 is used to test Candida. The MICs against S. aureus Smith are determined in Cation-adjusted Mueller Hinton and in Cation-Adjusted Mueller Hinton+50% Human Serum, to determine if the compound is inactivated by some component in serum (indicated by an increase in the MIC). Filled plates are wrapped in plastic bags (to minimize evaporation), stored frozen and thawed before use.
(§6) The compounds are prepared on a weight basis. Compounds are prepared to 2-10 mg/mL in 100% DMSO, then diluted to 1 mg/mL in a 1:1 dilution of DMSO/233 CAMHB (final concentration=50% DMSO/50% CAMHB). Compounds are serially diluted 1:1 in 50% DMSO/50% CAMHB in BD Biosciences Deep Well Polypropylene 96 well plates (starting concentration 1-5 mg/mL).
(§7) Using a Finn Automated Multichannel Pipette, (0.5-10 μL volume) 6.4 TLs of antimicrobial working solutions are added to wells of filled microtiter plates (concentration of antimicrobial in first well=512-64 microg/mL; concentration of DMSO=3.2%). Antimicrobials are added in this manner to keep constant the amount of DMSO in each well (to keep compounds solubilized and to account for the possibility of non-specific killing by the DMSO. The last row contains a growth control of 3.2% DMSO.
(§8) Controls (Penicillin G and chloramphenicol) are run with each assay. The controls are prepared in the same manner as described for the compounds of the invention. Ertapenem is included as a control for the serum protein binding assay.
(§9) Plates are incubated at 35° C. in ambient air. An uninoculated plate is also incubated as a sterility check. Results are recorded after 22-24-hours' incubation. Plates were read to no growth.

[2] = tested on: Enterococcus Faecalia CLB 21560
Protocol: as §1, §2, §3, §4, §5, §6, §7, §8, §9

[3] = tested on: Staphylococcus Aureus CL 5814; settings: Staphylococcus Aureus strain CL 5814
Protocol: as §1, §2, §3, §4, §5, §6, §7, §8, §9

[4] = tested on: Staphylococcus Aureus MB 2865; settings: Staphylococcus Aureus strain MB 2865
Protocol: as §1, §2, §3, §4, §5, §6, §7, §8, §9

Row | SMILES | MIC [1] [µg/mL] | MIC ([2]; Enterococcus) [µg/mL] | MIC [3] [ng/mL] | MIC [4] [µg/mL] | MIC ([2]; Enterococcus Faecalia strain CLB 21560, read-out: MIC) [µg/mL]
1 | CO/C(C)=C1/NC(=O)[C@H]([C@@H](C)O)NC(=O)c2csc(n2)-c2cc(O)c(-c3nc(CNC(=O)CN4CCOCC4)cs3)nc2-c2csc(n2)[C@@H]2COC(=O)c3c4c5c(cccc5n3O)COC(=O)[C@@H](O[C@H]3C[C@](C)(O)[C@H](N(C)C)[C@H](C)O3)[C@@H](OC4)[C@H](NC(=O)c3csc1n3)c1nc(cs1)C(=O)N2 [Compound A] | 0.015 (≈ 0.0101 µM) | 0.015 (≈ 0.0101 µM) | 3.8 (≈ 0.00256 µM) | 0.0075 (≈ 0.00506 µM) | –
2 | CO/C(C)=C1/NC(=O)[C@H]([C@@H](C)O)NC(=O)c2csc(n2)-c2cc(O)c(-c3nc(CNCCO)cs3)nc2-c2csc(n2)[C@@H]2COC(=O)c3c4c5c(cccc5n3O)COC(=O)[C@@H](O[C@H]3C[C@](C)(O)[C@H](N(C)C)[C@H](C)O3)[C@@H](OC4)[C@H](NC(=O)c3csc1n3)c1nc(cs1)C(=O)N2 [Compound B] | 0.03 (≈ 0.0215 µM) | – | 7.5 (≈ 0.00536 µM) | 0.03 (≈ 0.0215 µM) | 0.06 (≈ 0.0429 µM)
